This is an account of results in patent US20230152325A1, “Active Alpha-5-Beta-1 Integrin As A Biomarker For Enhancing Tumor Treatment Efficacy” (Institute For Cancer Research d/b/a The Research Institute …, priority 2016, published 2023).

Each structure is given as a SMILES string.

Experiment [1] relates to naïve pancreatic fibroblasts cultured within D-ECM. Briefly: ECM prompted myofibroblastic maintenance (α-SMA / F-actin immunofluorescence), PDAC model. The settings on record: PDAC; naïve fibroblasts plated in D-ECM in presence of the agent. The format is cell-based, human. The method, then: (§1) ECM prompted myofibroblastic maintenance. Human naïve or assorted murine fibroblasts were incubated for 45 minutes prior to overnight culturing within assorted ECMs, prepared as above, in the presence or absence of 50 μg/ml SNAKA51, 60 μg/m ALULA, 250 μg/m mAb16, or BMAS diluted as instructed by the manufacturer (Millipore, Temecula, Calif.), IgG control, DMSO or small molecule inhibitors FAK (PF573,228) and SRC family kinases (PP2). ECM-induced phenotypes were assessed via RT-qPCR, Western Blot or immunofluorescence.
(§2) Naïve/innate PDAC and RCC patient harvested fibroblasts were cultured overnight within normal (N-ECM) vs. desmoplastic (D-ECM or DECMs that were produced in the presence or absence of TGFβ1-receptor inhibition (D+TGFβi) or vehicle control (D+DMSO). Alternatively, naïve cells cultured within D-ECMs were treated with either TGFβ1-receptor inhibitor (TGFβ-i), vehicle (DMSO), functional blocking antibodies anti-αvβ5 integrin (alula, αvβ5-i), anti-α5β1 integrin (mAb16, α5β1-i), combinations of both functional blocking antibodies (β5-i+α5-i), functional stabilizing anti α5β1 integrin (SNAKA51; α5β1-act) or non-immunized isotypic antibodies (IgG). All samples were subjected to indirect immunofluorescent labeling of desmoplastic marker α-SMA and counterstained with fluorescently labeled phalloidin to detect actin stress fibers (F-actin) and determine the co-localization ratio. Monochromatic “heat map” images (see, FIG. 2A) represent α-SMA intensity values. A 255 tones intensity scale bar is shown to the right. A summary of all measured values is graphed in FIG. 2B. Additional monochromatic images indicative of double labeled staining for α-SMA and F-actin are in FIG. 2C while levels of total α-SMA localized at corresponding stress fibers are plotted in FIG. 2D. Untreated D-ECM conditions were included in all experiments summarized in this figure and serve as normalization (1 arbitrary unit; a.u.) controls. Matching values including statistical significances are listed in accompanying Table 1. All scale bars represent 50 μm. TGFβ activity was needed to maintain functional D-ECM production but was dispensable when testing D-ECM induced responses, while the later were obstructed by αvβ5 integrin inhibition or active α5β1 integrin stabilization.

For experiment [2], the system named is naïve renal fibroblasts cultured within D-ECM. The experiment in a line: ECM prompted myofibroblastic maintenance (α-SMA / F-actin immunofluorescence), RCC model. The format is cell-based, human. The settings on record: RCC; naïve fibroblasts plated in D-ECM in presence of the agent. The method, then:
as §1, §2

Experiment [3] has as its system murine fibroblasts cultured in mD-ECM. Briefly: mD-ECM induced myofibroblastic activation of murine fibroblasts (stress fiber α-SMA). The format is cell-based. The settings on record: wild type murine fibroblasts in mD-ECM (80% untreated). The method, then: as §1
FIGS. 3A through 3H show FAK independent α5β1 integrin activity negatively regulates D-ECM-induced desmoplastic activation. […]

Consider `CS(=O)(=O)c1cccc(CNc2nc(Nc3ccc4c(c3)CCC(=O)N4)ncc2C(F)(F)F)c1` [PF573,228], for which, in experiment [1], the “α-SMA expression levels relative to untreated conditions” value came to 17% and the “α-SMA stress fiber localization levels” value was found to be 23.5%. Further, in experiment [2], the “α-SMA expression levels relative to untreated conditions” value is listed as 70% and the “α-SMA stress fiber localization levels” value is reported as 25%. For the same compound, the “cells undergoing myofibroblastic activation” value in experiment [3] came to 32%.
